Where two headings read alike, the source gives them in different places.
Tests used:
Type in all cases: cell-based
MV4-11 = assay: Cell proliferation inhibition (CellTiter-Glo), MV4-11 cells; conditions: Homo sapiens, MV4-11 (MLL-AF4)
Protocol: (§1) The present example evaluates the ability of compounds described herein, inhibitors of Menin/MLL interaction, to inhibit cell proliferation. The proliferation inhibitory effect was investigated in human MLL-leukemia cells selected on the bases of MLL fusion proteins and listed in the table below.
(§2) ATP is present in all metabolically active cells and is considered as a marker for cell viability and proliferation. The metabolic cell activity was determined using the CellTiter-Glo kit from Promega, an ATP monitoring system based on the production of luminescence by the reaction of ATP with added UltraGlo® recombinant luciferase (Kawano et al., 2016, PLOS One, 8:11(7):e0158888), according to the supplier's experimental recommendations. The assay is based on a 96 well plate format. All experiments were carried out in duplicate in one test occasion.
(§3) Test items were dissolved at 20 mM in DMSO with purity ≥99.9% (Sigma catalog no. D8418) and stored at −20° C. Cells were maintained in RPMI-1640 medium (Invitrogen catalog no. 618700) supplemented with 10% of Heat Inactivated FBS (Invitrogen catalog no. 10500) and 1% Pen-Strep (Invitrogen catalog no. 15140) and cultured at 37° C. in a humidified incubator with 5% CO2. Cell lines were grown in suspension and the cell density was maintained in a range of 5×10^4-1×10^6 viable cells/ml where possible. Cells were pelleted at 130 g×5 min.
(§4) Serial dilutions of compounds 1 to 3 in DMSO 100% were prepared starting from a 2.5 mM solutions (prepared by diluting 1:8 the 20 mM stock solution) to generate a 7 point concentration response curve (CRC). Seven concentrations of test compounds (e.g., 5.00×10^−6-1.67×10^−6-5.56×10^−7-1.85×10^−7-6.17×10^−8-2.06×10^−8-6.86×10^−9 M) were assessed in duplicate in an individual test occasion in parallel in the selected cell lines. KO-539 was used as a reference compound and tested in duplicate at seven similar concentrations. 100% of proliferation was represented by the untreated cells (0.2% DMSO).
(§5) Cell proliferation inhibition was monitored at both the following end points: Day 4 (T4) and Day 7 (T7). For the appropriate cell density during the exponential cell growth and re-supply with fresh compound solution at T4, cells were diluted (1:4) with fresh medium containing the compound concentration (1×).
(§6) For each plate to test, one 0.4 μL copy plate and four 0.3 μL copy plates were stamped into 96-well plates not treated for cell adhesion (Sarstedt—cat. no. 82.1581.001) by acoustic liquid handling (Echo) at a concentration which was 500 fold the final assay concentration. Stamped plates were stored at −20° C.
(§7) On Day 0, the day of the experiment cell line suspensions were counted by Cell Viability Analyser, Vi-CELL (Beckman Coulter AY15292), and diluted with fresh medium to obtain the following cell densities: K-562 500 c/ml, MOLM-13 1,000 c/ml, MV4-11 10,000 c/ml, OCI-AML-3 500 c/ml, and U-937 500-1,000 c/ml. 200 μL/well and 150 μL/well of cell suspension were added into the 0.4 μL/well and 0.3 μL/well compound plates, respectively. Cell plate containing 200 μL/well suspension were incubated at 37° C. in a humidified incubator with 5% CO2. From each well of the 150 μL/well cell assay plate, 100 μL were harvested and transferred into a 96-well Optiplate (Perkin Elmer, cat. no. 6005290). Cell viability was measured as described below.
(§8) On Day 4, 150p/well of fresh medium was added into a new 0.3 μL/well copy compound plates. From each well of the 200 μL/well cell assay plate, 100 μL was sampled for the cell viability measurement as described below. 50p was harvested and added to the 150p/well compound plate prepared as described in the first point to dilute 1:4 the cell suspension. The cell assay plate diluted and containing 200 μL/well suspension was incubated at 37° C. in a humidified incubator with 5% CO2.
(§9) On Day 4, 150p/well of fresh medium was added into a new 0.3 μL/well copy compound plates. […]

K-562 = assay: Cell proliferation inhibition (CellTiter-Glo), K-562 cells; conditions: Homo sapiens, K-562 (BCR-ABL)
Protocol: as §1, §2, §3, §4, §5, §6, §7, §8, §9

MOLM-13 = assay: Cell proliferation inhibition (CellTiter-Glo), MOLM-13 cells; conditions: Homo sapiens, MOLM-13 (MLL-AF9)
Protocol: as §1, §2, §3, §4, §5, §6, §7, §8, §9

[1] = 96 h, Day 4, read-out: MV-4:11 IC50 μM (Day 4)*
[2] = K562, 96 h, Day 4, read-out: K-562 IC50 μM (Day 4)
[3] = 96 h, Day 4, read-out: MOLM-13 Day IC50 μM (Day 4)*
[4] = 168 h, Day 7, read-out: MV-4:11 IC50 μM (Day 7)*
[5] = K562, 168 h, Day 7, read-out: K-562 IC50 μM (Day 7)*
[6] = 168 h, Day 7, read-out: MOLM-13 Day IC50 μM (Day 7)*

C=CC(=O)N[C@@H]1CCCN(Cc2ccnc(C(=O)NC3CCC(c4cc5c(N6CCOCC6)ncnc5[nH]4)CC3)c2)C1 (stereo partly drawn) [Compound B0700-526, (R)-4-((3-acrylamidopiperidin-1-yl)methyl)-N-(4-(4-morpholino-7H-pyrrolo[2,3-d]pyrimidin-6-yl)cyclohexyl)picolinamide]
IC50 (MV4-11; [1]): 6.83 µM
IC50 (K-562; [2]): > 10 µM
IC50 (MOLM-13; [3]): 3.46 µM

C=CC(=O)N1CCCC(N2CCC(S(=O)(=O)Nc3ccc(-c4cc5c(N6CCOCC6)ncnc5[nH]4)cc3)C2)C1 (stereo not drawn) [Compound B0700-611, 1-(1-acryloylpiperidin-3-yl)-N-(4-(4-morpholino-7H-pyrrolo[2,3-d]pyrimidin-6-yl)phenyl)pyrrolidine-3-sulfonamide]
IC50 (MV4-11; [1]): 0.629 µM
IC50 (MV4-11; [4]): 0.38 µM
IC50 (K-562; [2]): > 10 µM
IC50 (K-562; [5]): > 10 µM
IC50 (MOLM-13; [3]): 0.963 µM
IC50 (MOLM-13; [6]): 0.834 µM

C=CC(=O)N[C@H]1CCCN(c2cccc(CS(=O)(=O)Nc3ccc(-c4cc5c(N6CCOCC6)ncnc5[nH]4)cc3)c2)C1 [Compound B0700-540]
IC50 (MV4-11; [1]): 0.148 µM
IC50 (K-562; [2]): > 10 µM
IC50 (MOLM-13; [3]): 0.329 µM

C=CC(=O)N[C@@H]1CCCN(Cc2cccc(S(=O)(=O)Nc3ccc(-c4nc5c(N6CCOCC6)ncnc5s4)nc3)c2)C1 [Compound B0700-534, (R)—N-(1-(3-(N-(6-(7-morpholinothiazolo[5,4-d]pyrimidin-2-yl)pyridin-3-yl)sulfamoyl)benzyl)piperidin-3-yl)acrylamide]
IC50 (MV4-11; [1]): > 10 µM
IC50 (K-562; [2]): > 10 µM
IC50 (MOLM-13; [3]): > 10 µM

Cc1cc(C)n2c1C=C1C=CC(CCC(=O)NCCCCN(C)C/C=C/C(=O)N[C@@H]3CCCN(Cc4ccnc(C(=O)Nc5ccc(-c6cc7c(N8CCOCC8)ncnc7[nH]6)cc5)c4)C3)=[N+]1[B-]2(F)F [Compound B0700-503]
IC50 (MV4-11; [1]): 2.89 µM
IC50 (K-562; [2]): 2.51 µM
IC50 (MOLM-13; [3]): 4.51 µM

C=CC(=O)N[C@H]1CCCN(c2cccc(C(C)S(=O)(=O)Nc3ccc(-c4cc5c(N6CCOCC6)ncnc5[nH]4)cc3)c2)C1 (stereo partly drawn) [Compound B0700-565]
IC50 (MV4-11; [1]): 0.274 µM
IC50 (K-562; [2]): > 10 µM
IC50 (MOLM-13; [3]): 1.03 µM

C=CS(=O)(=O)N[C@H]1CCN(c2cccc(CS(=O)(=O)Nc3ccc(-c4cc5c(N6CCOCC6)ncnc5[nH]4)cc3)c2)C1 [Compound B0700-541]
IC50 (MV4-11; [1]): 0.09 µM
IC50 (K-562; [2]): 2.06 µM
IC50 (MOLM-13; [3]): 0.193 µM

C=CC(=O)N[C@@H]1CCCN(c2cccc([C@@H](C)S(=O)(=O)Nc3ccc(-c4cc5c(N6CCOCC6)ncnc5[nH]4)cc3)c2)C1 [Compound B0700-546]
IC50 (MV4-11; [1]): 1.75 µM
IC50 (K-562; [2]): > 10 µM
IC50 (MOLM-13; [3]): 3.59 µM

C=CC(=O)N1CCC(N2CCC(S(=O)(=O)Nc3ccc(-c4cc5c(N6CCOCC6)ncnc5[nH]4)cc3)CC2)CC1 [Compound B0700-610, 1′-acryloyl-N-(4-(4-morpholino-7H-pyrrolo[2,3-d]pyrimidin-6-yl)phenyl)-[1,4′-bipiperidine]-4-sulfonamide]
IC50 (MV4-11; [1]): 0.487 µM
IC50 (MV4-11; [4]): 0.29 µM
IC50 (K-562; [2]): > 10 µM
IC50 (K-562; [5]): > 10 µM
IC50 (MOLM-13; [3]): 0.806 µM
IC50 (MOLM-13; [6]): 0.458 µM

C=CC(=O)N[C@@H]1CCCN(Cc2ccnc(C(=O)Nc3ccc(-c4cc5c(C67CCOCC6C7)ncnc5[nH]4)cc3)c2)C1 (stereo partly drawn) [Compound B0700-706]
IC50 (MV4-11; [1]): 0.47 µM
IC50 (K-562; [2]): 1.48 µM
IC50 (MOLM-13; [3]): 0.54 µM

C=CC(=O)N[C@@H]1CCCN(Cc2ccnc(C(=O)Nc3ccc(-c4cc5c(N6CCOCC6)nccc5[nH]4)cc3)c2)C1 [Compound B0700-614, (R)-4-((3-acrylamidopiperidin-1-yl)methyl)-N-(4-(4-morpholino-1H-pyrrolo[3,2-c]pyridin-2-yl)phenyl)picolinamide]
IC50 (MV4-11; [1]): 0.696 µM
IC50 (MV4-11; [4]): 1.03 µM
IC50 (K-562; [2]): 0.554 µM
IC50 (K-562; [5]): 0.186 µM
IC50 (MOLM-13; [3]): 0.923 µM
IC50 (MOLM-13; [6]): 0.523 µM

C=CC(=O)N[C@H]1CCN(c2cccc(CS(=O)(=O)NC3CCN(c4nc5c(N6CCOCC6)ncnc5s4)CC3)c2)C1 [Compound B0700-537]
IC50 (MV4-11; [1]): > 10 µM
IC50 (K-562; [2]): > 10 µM
IC50 (MOLM-13; [3]): > 10 µM

C=CC(=O)N[C@@H]1CCCN(Cc2ccnc(C(=O)Nc3ccc(-c4cc5c(N6CCC(O)CC6)ncnc5[nH]4)cc3)c2)C1 [Compound B0700-568]
IC50 (MV4-11; [1]): 0.419 µM
IC50 (MV4-11; [4]): 0.34 µM
IC50 (K-562; [2]): > 10 µM
IC50 (K-562; [5]): > 10 µM
IC50 (MOLM-13; [3]): 0.495 µM
IC50 (MOLM-13; [6]): 0.924 µM

C=CC(=O)N[C@@H]1CCC[C@H](Nc2ccnc(C(=O)Nc3ccc(-c4cc5c(N6CCOCC6)ncnc5[nH]4)cc3)c2)C1 [Compound B0700-607, 4-(((1S,3R)-3-acrylamidocyclohexyl)amino)-N-(4-(4-morpholino-7H-pyrrolo[2,3-d]pyrimidin-6-yl)phenyl)picolinamide]
IC50 (MV4-11; [1]): 0.398 µM
IC50 (MV4-11; [4]): 0.43 µM
IC50 (K-562; [2]): 2.96 µM
IC50 (K-562; [5]): 3.47 µM
IC50 (MOLM-13; [3]): 0.202 µM
IC50 (MOLM-13; [6]): 0.349 µM

C=CC(=O)N[C@@H]1CCCN(Cc2ccnc(C(=O)Nc3ccc(-c4cc5c(N6CCC(C)(O)CC6)ncnc5[nH]4)cc3)c2)C1 [Compound B0700-569]
IC50 (MV4-11; [1]): 0.318 µM
IC50 (MV4-11; [4]): 0.37 µM
IC50 (K-562; [2]): > 10 µM
IC50 (K-562; [5]): 9.87 µM
IC50 (MOLM-13; [3]): 0.492 µM
IC50 (MOLM-13; [6]): 1.07 µM

C=CC(=O)N[C@@H]1CCCN(Cc2ccnc(C(C)Nc3ccc(-c4cc5c(N6CCOCC6)ncnc5[nH]4)cc3)c2)C1 (stereo partly drawn) [Compound B0700-514, N-((3R)-1-((2-(1-((4-(4-morpholino-7H-pyrrolo[2,3-d]pyrimidin-6-yl)phenyl)amino)ethyl)pyridin-4-yl)methyl)piperidin-3-yl)acrylamide]
IC50 (MV4-11; [1]): 0.651 µM
IC50 (MV4-11; [4]): 0.54 µM
IC50 (K-562; [2]): > 10 µM
IC50 (K-562; [5]): > 10 µM
IC50 (MOLM-13; [3]): 0.631 µM
IC50 (MOLM-13; [6]): 0.546 µM

C=CC(=O)N[C@@H]1CCCN(c2cccc(C(C)S(=O)(=O)Nc3ccc(-c4cc5c(N6CCOCC6)ncnc5[nH]4)cc3)c2)C1 (stereo partly drawn) [Compound B0700-545]
IC50 (MV4-11; [1]): 0.84 µM
IC50 (K-562; [2]): > 10 µM
IC50 (MOLM-13; [3]): 1.07 µM

[2H]C1([2H])OC([2H])([2H])C([2H])([2H])N(c2ncnc3[nH]c(-c4ccc(NC(=O)c5cc(CN6CCC[C@@H](NC(=O)C=C)C6)ccn5)cc4)cc23)C1([2H])[2H] [Compound B0700-601, (R)-4-((3-acrylamidopiperidin-1-yl)methyl)-N-(4-(4-(morpholino-d8)-7H-pyrrolo[2,3-d]pyrimidin-6-yl)phenyl)picolinamide]
IC50 (MV4-11; [1]): 0.397 µM
IC50 (K-562; [2]): > 10 µM
IC50 (MOLM-13; [3]): 0.282 µM

C=CC(=O)N[C@@H]1CCCN(Cc2cccc(S(=O)(=O)Nc3ccc(-c4nc5c(N6CCOCC6)ncnc5s4)cc3)c2)C1 [Compound B0700-532, (R)—N-(1-(3-(N-(4-(7-morpholinothiazolo[5,4-d]pyrimidin-2-yl)phenyl)sulfamoyl)benzyl)piperidin-3-yl)acrylamide]
IC50 (MV4-11; [1]): > 10 µM
IC50 (K-562; [2]): > 10 µM
IC50 (MOLM-13; [3]): > 10 µM

C=CC(=O)N[C@H]1CCN(c2cccc(C(C)S(=O)(=O)Nc3ccc(-c4cc5c(N6CCOCC6)ncnc5[nH]4)cc3)c2)C1 (stereo partly drawn) [Compound B0700-543]
IC50 (MV4-11; [1]): 0.073 µM
IC50 (K-562; [2]): 9.07 µM
IC50 (MOLM-13; [3]): 0.158 µM

— patent US20240124467A1, “FUSED PYRIMIDINE COMPOUNDS AS INHIBITORS OF MENIN-MLL INTERACTION” (Biomea Fusion, Inc., priority 2020, published 2024)
